Laboratory results from US8846917B2, “Compounds useful as inhibitors of ATR kinase” (Vertex Pharmaceuticals Incorporated, priority 2011, dated 2014).
pKi: −log10 of the molar value.

Molecular target: full-length ATR (Homo sapiens (Human), UniProt Q13535)
Assay: ATR Inhibition Assay (radioactive-phosphate incorporation)
Assay type: biochemical
Conditions: Ki(app); 10 μM ATP, 800 μM target peptide, 5 nM full-length ATR, 25° C.
Experimental: Compounds were screened for their ability to inhibit ATR kinase using a radioactive-phosphate incorporation assay. Assays were carried out in a mixture of 50 mM Tris/HCl (pH 7.5), 10 mM MgCl2 and 1 mM DTT. […] Assays were carried out at 25° C. in the presence of 5 nM full-length ATR. An assay stock buffer solution was prepared containing all of the reagents listed above, with the exception of ATP and the test compound of interest. […] The plate was pre-incubated for 10 minutes at 25° C. and the reaction initiated by addition of 15 μL [γ-33P]ATP (final concentration 10 μM). The reaction was stopped after 24 hours by the addition of 30 μL 0.1M phosphoric acid containing 2 mM ATP. A multiscreen phosphocellulose filter 96-well plate (Millipore, Cat no. MAPHN0B50) was pretreated with 100 μL 0.2M phosphoric acid prior to the addition of 45 μL of the stopped assay mixture. The plate was washed with 5×200 μL 0.2M phosphoric acid. After drying, 100 μL Optiphase ‘SuperMix’ liquid scintillation cocktail (Perkin Elmer) was added to the well prior to scintillation counting (1450 Microbeta Liquid Scintillation Counter, Wallac). After removing mean background values for all of the data points, Ki(app) data were calculated from non-linear regression analysis of the initial rate data using the Prism software package (GraphPad Prism version 3.0cx for Macintosh, GraphPad Software, San Diego Calif., USA).

full-length ATR, sequence (Q13535 whole entry): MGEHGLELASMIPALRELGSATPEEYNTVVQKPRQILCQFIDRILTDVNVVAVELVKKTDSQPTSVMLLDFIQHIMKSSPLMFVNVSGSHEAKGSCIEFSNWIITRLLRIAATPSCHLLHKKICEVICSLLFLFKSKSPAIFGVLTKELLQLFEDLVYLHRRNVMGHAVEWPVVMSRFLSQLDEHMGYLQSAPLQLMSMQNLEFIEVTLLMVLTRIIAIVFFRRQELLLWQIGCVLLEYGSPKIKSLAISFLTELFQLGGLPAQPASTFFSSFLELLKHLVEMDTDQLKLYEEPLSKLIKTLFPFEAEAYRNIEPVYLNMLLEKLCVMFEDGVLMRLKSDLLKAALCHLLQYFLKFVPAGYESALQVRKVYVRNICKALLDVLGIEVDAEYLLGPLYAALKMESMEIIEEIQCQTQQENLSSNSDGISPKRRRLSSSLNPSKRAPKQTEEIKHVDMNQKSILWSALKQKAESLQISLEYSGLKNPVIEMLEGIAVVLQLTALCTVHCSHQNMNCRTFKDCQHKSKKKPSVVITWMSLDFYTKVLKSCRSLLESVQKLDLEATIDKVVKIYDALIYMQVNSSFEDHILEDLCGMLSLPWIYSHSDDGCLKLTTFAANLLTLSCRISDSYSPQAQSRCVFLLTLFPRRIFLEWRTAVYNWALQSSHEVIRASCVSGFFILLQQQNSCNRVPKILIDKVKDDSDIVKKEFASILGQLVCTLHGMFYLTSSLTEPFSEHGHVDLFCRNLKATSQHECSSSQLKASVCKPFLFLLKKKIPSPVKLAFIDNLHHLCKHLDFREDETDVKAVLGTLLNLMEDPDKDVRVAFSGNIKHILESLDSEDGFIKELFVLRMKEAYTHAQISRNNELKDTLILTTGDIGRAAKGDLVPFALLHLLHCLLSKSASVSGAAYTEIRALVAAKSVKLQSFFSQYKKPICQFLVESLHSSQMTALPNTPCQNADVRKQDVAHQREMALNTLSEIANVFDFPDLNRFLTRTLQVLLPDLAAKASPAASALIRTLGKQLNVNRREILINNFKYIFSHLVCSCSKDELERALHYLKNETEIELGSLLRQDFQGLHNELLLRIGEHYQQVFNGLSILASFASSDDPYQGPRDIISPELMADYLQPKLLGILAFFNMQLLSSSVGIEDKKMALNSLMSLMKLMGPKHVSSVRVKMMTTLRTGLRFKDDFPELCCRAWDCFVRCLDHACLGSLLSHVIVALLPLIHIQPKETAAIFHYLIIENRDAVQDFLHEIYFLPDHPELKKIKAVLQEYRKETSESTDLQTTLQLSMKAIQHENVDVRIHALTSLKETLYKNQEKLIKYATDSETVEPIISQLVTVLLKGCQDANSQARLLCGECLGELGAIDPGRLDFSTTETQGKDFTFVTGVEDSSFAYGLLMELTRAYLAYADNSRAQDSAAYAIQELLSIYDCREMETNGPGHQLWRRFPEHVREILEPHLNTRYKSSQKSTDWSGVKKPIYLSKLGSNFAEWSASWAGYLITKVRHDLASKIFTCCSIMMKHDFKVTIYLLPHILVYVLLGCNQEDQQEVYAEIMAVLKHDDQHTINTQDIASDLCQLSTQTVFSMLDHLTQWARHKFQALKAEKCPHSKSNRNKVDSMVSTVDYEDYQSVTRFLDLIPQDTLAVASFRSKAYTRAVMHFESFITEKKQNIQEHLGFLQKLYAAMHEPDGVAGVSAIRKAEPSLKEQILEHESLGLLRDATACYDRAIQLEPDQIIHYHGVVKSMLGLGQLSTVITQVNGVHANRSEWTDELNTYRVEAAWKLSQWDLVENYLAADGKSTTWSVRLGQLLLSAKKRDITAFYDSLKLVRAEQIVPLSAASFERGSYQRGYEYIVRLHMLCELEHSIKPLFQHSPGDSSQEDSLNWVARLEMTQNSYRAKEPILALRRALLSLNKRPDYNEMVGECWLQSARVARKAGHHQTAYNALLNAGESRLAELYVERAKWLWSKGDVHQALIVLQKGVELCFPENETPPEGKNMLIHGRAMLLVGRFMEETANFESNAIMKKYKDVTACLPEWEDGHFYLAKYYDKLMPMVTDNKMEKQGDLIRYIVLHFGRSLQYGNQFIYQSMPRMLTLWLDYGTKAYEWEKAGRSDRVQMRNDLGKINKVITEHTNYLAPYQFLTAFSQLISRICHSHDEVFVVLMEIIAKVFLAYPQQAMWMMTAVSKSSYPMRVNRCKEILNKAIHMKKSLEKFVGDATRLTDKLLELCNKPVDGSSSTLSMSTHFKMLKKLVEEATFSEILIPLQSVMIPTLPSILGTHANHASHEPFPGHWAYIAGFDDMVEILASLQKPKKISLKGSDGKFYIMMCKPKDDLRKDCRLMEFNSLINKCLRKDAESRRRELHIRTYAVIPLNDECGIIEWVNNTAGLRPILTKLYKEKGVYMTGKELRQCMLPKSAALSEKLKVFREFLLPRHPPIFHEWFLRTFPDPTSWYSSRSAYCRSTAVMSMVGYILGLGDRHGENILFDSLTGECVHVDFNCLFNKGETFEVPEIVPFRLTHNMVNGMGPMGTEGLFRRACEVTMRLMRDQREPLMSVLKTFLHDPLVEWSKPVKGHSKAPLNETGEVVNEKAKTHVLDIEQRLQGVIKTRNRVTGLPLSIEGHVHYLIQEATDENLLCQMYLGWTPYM

pKi: 8.22
SMILES: CC(C)S(=O)(=O)c1ccc(-c2cnc(N)c(-c3cn(-c4ccccc4)nn3)n2)cc1 [Compound I-1, 5-(4-(isopropylsulfonyl)phenyl)-3-(1-phenyl-1H-1,2,3-triazol-4-yl)pyrazin-2-amine]
